From patent publication US20130252951A1, “7-HYDROXY-PYRAZOLO[1,5-A] PYRIMIDINE COMPOUNDS AND THEIR USE AS CCR2 RECEPTOR ANTAGONISTS” (Proximagen Limited, priority 2010, published 2013)
pKi: −log10 of the molar value.

target: human CCR2 (Homo sapiens, UniProt P41597); assay: CCR2 functional calcium assay (FLIPR calcium flux, hMCP-1 challenge); assay type: cell-based; set-up: expressed in transfected cells; host or cells: HEK293 EBNA cells; conditions: HEK293 EBNA cells transfected with human CCR2, hMCP-1 challenge; read-out: Functional CCR2 fKi
Excerpt: The CCR2 receptor couples through the Gi/Gq signaling pathway and results in activation of calcium mobilization. The functional activity of test compounds was routinely tested by measuring the ability of compounds to antagonize CCR2 activity in a dose dependent manner, in HEK293 EBNA cells transfected with the human CCR2 receptor (hMCP-1 challenge), using a calcium flux Fluorescent Imaging Plate Reader FLIPR assay. Non-transfected HEK293 EBNA cells were used as control of non-specific response.
Briefly, test compounds were dissolved in dimethyl sulfoxide (DMSO) to a concentration of 10 mM and stored in matrix screenmate racks. The required amount of compound was transferred to 96-well compound plates on the day of assay and diluted in assay buffer to the required final concentration; dose-response measurements were assayed by making 1:3 serial dilutions to produce 10 point curves. The compounds were then transferred to 384-well assay plates ready for use. Top concentrations were adjusted depending on the potency of the compounds with a typical concentration range of 30 μM to 0.5 nM being used. The assay buffer used was HBSS buffer supplemented with 20 mM HEPES and 0.1% BSA, pH7.4. The loading/wash buffers were the same as the assay buffer.
Cells were suspended in culture medium at a density of 10000 cells/50 μl (the cell culture media composition was DMEM high glucose supplemented with 10% dialyzed FBS, 250 μg/ml Geneticin, and 400 μg/ml Hygromycin B), transferred to 384-well black/clear Costar plates (Costar #3712) (50 μl/well) and incubated at 37° C., in a 5% CO2/95% air humidified incubator for 16 h. The cells were washed with assay buffer at 37° C. using the Biotek ELx 405, washing 3 times, leaving 20 μl buffer in the well. 20 μl Fluo-4 (Fluo-4 stock solution (1 mM) was prepared by dissolving one vial of Fluo-4 (50 μg) in 45 μl of pluronic acid (240 mg/ml in DMSO). This stock solution of Fluo-4 was then diluted 250 times with loading buffer to give a Fluo-4 concentration of 4 μM. The dye solution (used within 2 h and kept away from light) was added to each well using a repeating multichannel pipette; the cells were then incubated at 37° C. for 60 min. Following the incubation, cells were washed in assay buffer at 37° C. using the Biotek ELx 405, washing 3 times, leaving 40 μl in each well and incubated for 10 min at 37° C. before use. A combined agonist/antagonist protocol was used. Compound (antagonist) was added to the cell plate using the FLIPR. Basal fluorescence was recorded every second for 10 seconds prior to compound addition (10 μl) and fluorescence recorded every second for 1 minute then every 6 seconds for a further 1 minute. Agonist (MCP-1) was then added using the FLIPR and fluorescence recorded as described above.
The positive control (agonist) was human recombinant MCP-1 which was stored as a stock concentration of 10 μM in distilled water and stored at −20° C. (maximal response: 30 nM; EC50 dose: 3-5 nM). The reference compound (antagonist) was RS102895 which was used as a 10 mM DMSO solution and stored at −20° C.
FLIPR responses were measured as peak minus basal fluorescence intensity and were expressed as a percentage of EC50 MCP-1 challenge. Curve-fitting and parameter estimation were carried out using GraphPad Prism 4.0 (GraphPad Software Inc., San Diego, Calif.).

Chain of human CCR2 (P41597 whole entry): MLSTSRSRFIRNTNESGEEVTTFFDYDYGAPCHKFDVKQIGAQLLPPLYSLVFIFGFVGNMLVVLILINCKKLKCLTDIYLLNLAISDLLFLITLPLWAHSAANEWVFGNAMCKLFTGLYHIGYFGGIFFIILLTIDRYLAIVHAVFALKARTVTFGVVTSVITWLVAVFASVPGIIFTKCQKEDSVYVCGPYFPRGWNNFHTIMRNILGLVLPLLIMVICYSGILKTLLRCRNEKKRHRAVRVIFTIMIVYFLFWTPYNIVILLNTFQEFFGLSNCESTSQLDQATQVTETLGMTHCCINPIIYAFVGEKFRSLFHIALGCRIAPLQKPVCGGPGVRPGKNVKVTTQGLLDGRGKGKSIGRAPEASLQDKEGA

pKi	Structure (SMILES)
6.00 to 7.00	Cc1nc2c(C(=O)NC[C@@H]3CCCO3)cnn2c(O)c1Cc1ccc(Cl)cc1 (stereo in doubt) [Example 110, 6-[(4-Chlorophenyl)methyl]-7-hydroxy-5-methyl-N-(oxolan-2-ylmethyl)pyrazolo-[1,5-a] pyrimidine-3-carboxamide]
6.00 to 7.00	Cc1nc2ccnn2c(O)c1Cc1ccc(C(F)(F)F)cc1 [Example 2, 5-Methyl-6-{[4-(trifluoromethyl)phenyl]methyl}pyrazolo[1,5-a]pyrimidin-7-ol]
6.00 to 7.00	Oc1c(Cc2cccc(F)c2)c(-c2cnccn2)nc2cncn12 [Example 3, 3-[(3-Fluorophenyl)methyl]-2-(pyrazin-2-yl)imidazo[1,5-a]pyrimidin-4-ol]
> 8.00	CCc1nc2ccnn2c(O)c1Cc1cc(F)cc(C(F)(F)F)c1 [Example 4, 5-Ethyl-6-{[3-fluoro-5-(trifluoromethyl)phenyl]methyl}pyrazolo[1,5-a]pyrimidin-7-ol]
7.00 to 8.00	Cc1nc2ccnn2c(O)c1Oc1cccc(F)c1 [Example 5, 6-(3-Fluorophenoxy)-5-methylpyrazolo[1,5-a]pyrimidin-7-ol]
7.00 to 8.00	COC(=O)c1nc2ccnn2c(O)c1Cc1ccc(Cl)cc1 [Example 6, Methyl 6-[(4-chlorophenyl)methyl]-7-hydroxypyrazolo[1,5-a]pyrimidine-5-carboxylate]
6.00 to 7.00	Cc1nc2ccnn2c(O)c1Cc1cccc(F)c1F [Example 7, 6-[(2,3-Difluorophenyl)methyl]-5-methyl-pyrazolo[1,5-a]pyrimidine-7-ol]
6.00 to 7.00	Cc1nc2ccnn2c(O)c1Cc1ccc(F)c(C#N)c1 [Example 8, 2-Fluoro-5-({7-hydroxy-5-methylpyrazolo-(1,5-a]pyrimidin-6-yl}methyl)benzonitrile]
7.00 to 8.00	Cc1nc2ccnn2c(O)c1Cc1ccc(Cl)c(Br)c1 [Example 9, 6-[(3-Bromo-4-chlorophenyl)methyl]-5-methylpyrazolo[1,5-a]pyrimidin-7-ol]
6.00 to 7.00	COc1cccc(Cc2c(C)nc3ccnn3c2O)c1 [Example 10, 6-[(3-Methoxyphenyl)methyl]-5-methyl-pyrazolo[1,5-a]pyrimidin-7-ol]
6.00 to 7.00	Cc1nc2ccnn2c(O)c1C(C)c1ccc(Cl)cc1 (stereo not shown) [Example 11, 6-[1-(4-Chlorophenyl)ethyl]-5-methyl-pyrazolo[1,5-a]pyrimidin-7-ol]
> 8.00	CCc1nc2ccnn2c(O)c1Cc1cc(F)cc(F)c1 [Example 12, 6-[(3,5-difluorophenyl)methyl]-5-ethyl-pyrazolo[1,5-a]pyrimidin-7-ol]
> 8.00	CCc1nc2ccnn2c(O)c1Cc1cc(F)c(F)c(F)c1 [Example 13, 5-Ethyl-6-[(3,4,5-trifluorophenyl)-methyl]pyrazolo[1,5-a]pyrimidin-7-ol]
> 8.00	CCc1nc2ccnn2c(O)c1Cc1ccc(F)c(Cl)c1 [Example 14, 6-[(3-Chloro-4-fluorophenyl)methyl]-5-ethylpyrazolo[1,5-a]pyrimidin-7-ol]
> 8.00	CCc1nc2ccnn2c(O)c1Cc1ccc(Cl)c(Cl)c1 [Example 15, 6-[(3,4-Dichlorophenyl)methyl]-5-ethylpyrazolo[1,5-a]pyrimidin-7-ol]
> 8.00	CCCc1nc2ccnn2c(O)c1Cc1ccc(Cl)c(Cl)c1 [Example 17, 6-[(3,4-Dichlorophenyl)methyl]-5-propyl-pyrazolo[1,5-a]pyrimidin-7-ol]
> 8.00	Oc1c(Cc2ccccc2)c(C2CC2)nc2ccnn12 [Example 18, 6-Benzyl-5-cyclopropylpyrazolo[1,5-a]-pyrimidin-7-ol]
7.00 to 8.00	Oc1c(Cc2ccc(OC(F)(F)F)cc2)c(C2CC2)nc2ccnn12 [Example 19, 5-Cyclopropyl-6-{[4-(trifluoromethoxy)-phenyl]methyl}pyrazolo[1,5-a]pyrimidin-7-ol]
7.00 to 8.00	Oc1c(Cc2cccc(OC(F)(F)F)c2)c(C2CC2)nc2ccnn12 [Example 20, 5-Cyclopropyl-6-{[3-(trifluoromethoxy)-phenyl]methyl}pyrazolo[1,5-a]pyrimidin-7-ol]

pKi	Structure (SMILES)
> 8.00	Oc1c(Cc2ccc(C(F)(F)F)cc2)c(C2CC2)nc2ccnn12 [Example 23]
> 8.00	Oc1c(Cc2ccc(F)c(F)c2)c(C2CC2)nc2ccnn12 [Example 24, 5-Cyclopropyl-6-[(3,4-difluorophenyl)-methyl]pyrazolo[1,5-a]pyrimidin-7-ol]
> 8.00	Oc1c(Cc2cc(F)cc(F)c2)c(C2CC2)nc2ccnn12 [Example 25, 5-Cyclopropyl-6-[(3,5-difluorophenyl)-methyl]pyrazolo[1,5-a]pyrimidin-7-ol]
> 8.00	Oc1c(Cc2cc(F)c(F)c(F)c2)c(C2CC2)nc2ccnn12 [Example 26, 5-Cyclopropyl-6-[(3,4,5-trifluorophenyl)-methyl]pyrazolo[1,5-a]pyrimidin-7-ol]
> 8.00	Oc1c(Cc2ccc(Cl)c(F)c2)c(C2CC2)nc2ccnn12 [Example 27, 6-[(4-Chloro-3-fluorophenyl)methyl]-5-cyclopropylpyrazolo[1,5-a]pyrimidin-7-ol]
> 8.00	Oc1c(Cc2ccc(F)c(Cl)c2)c(C2CC2)nc2ccnn12 [Example 28, 6-[(3-Chloro-4-fluorophenyl)methyl]-5-cyclopropylpyrazolo[1,5-a]pyrimidin-7-ol]
> 8.00	Oc1c(Cc2cc(F)cc(Cl)c2)c(C2CC2)nc2ccnn12 [Example 29, 6-[(3-Chloro-5-fluorophenyl)methyl]-5-cyclopropylpyrazolo[1,5-a]pyrimidin-7-ol]
> 8.00	Oc1c(Cc2ccc(Cl)c(Cl)c2)c(C2CC2)nc2ccnn12 [Example 30, 5-Cyclopropyl-6-[(3,4-dichlorophenyl)-methyl]pyrazolo[1,5-a]pyrimidin-7-ol]
> 8.00	Oc1c(Cc2ccc(F)c(C(F)(F)F)c2)c(C2CC2)nc2ccnn12 [Example 31, 5-Cyclopropyl-6-{[4-fluoro-3-(trifluoro-methyl)phenyl]methyl}pyrazolo[1,5-a]-pyrimidin-7-ol]
> 8.00	Oc1c(Cc2ccc(C(F)(F)F)c(F)c2)c(C2CC2)nc2ccnn12 [Example 32, 5-Cyclopropyl-6-{[3-fluoro-4-(trifluoromethyl)phenyl]methyl}pyrazolo[1,5-a]pyrimidin-7-ol]
> 8.00	Oc1c(Cc2cc(Cl)cc(Cl)c2)c(C2CC2)nc2ccnn12 [Example 34, 5-Cyclopropyl-6-[(3,5-dichlorophenyl)-methyl]pyrazolo[1,5-a]pyrimidin-7-ol]
> 8.00	CC(C)c1nc2ccnn2c(O)c1Cc1ccc(F)c(F)c1 [Example 35, 6-[(3,4-Difluorophenyl)methyl]-5-(propan-2-yl)pyrazolo[1,5-a]pyrimidin-7-ol]
> 8.00	CC(C)c1nc2ccnn2c(O)c1Cc1cc(F)c(F)c(F)c1 [Example 36, 5-(Propan-2-yl)-6-[(3,4,5-trifluorophenyl)-methyl]pyrazolo[1,5-a]pyrimidin-7-ol]
> 8.00	CC(C)c1nc2ccnn2c(O)c1Cc1ccc(Cl)c(F)c1 [Example 38, 6-[(4-Chloro-3-fluorophenyl)methyl]-5-(propan-2-yl)pyrazolo[1,5-a]pyrimidin-7-ol]
> 8.00	CC(C)c1nc2ccnn2c(O)c1Cc1cc(F)cc(Cl)c1 [Example 39, 6-[(3-Chloro-5-fluorophenyl)methyl]-5-(propan-2-yl)pyrazolo[1,5-a]pyrimidin-7-ol]
> 8.00	CC(C)c1nc2ccnn2c(O)c1Cc1ccc(Cl)c(Cl)c1 [Example 41, 6-[(3,4-Dichlorophenyl)methyl]-5-(propan-2-yl)pyrazolo[1,5-a]pyrimidin-7-ol]
> 8.00	CC(C)c1nc2ccnn2c(O)c1Cc1cc(Cl)cc(Cl)c1 [Example 42, 6-[(3,5-Dichlorophenyl)methyl]-5-(propan-2-yl)pyrazolo[1,5-a]pyrimidin-7-ol]
> 8.00	Oc1c(Cc2cccc(Cl)c2)c(C2CCC2)nc2ccnn12 [Example 43, 6-[(3-Chlorophenyl)methyl]-5-cyclobutyl-pyrazolo[1,5-a]pyrimidin-7-ol]
